This assay concerns MCH receptors. Kind of assay: MCH receptor activity class (method not given).
Setting [1] is: MCH receptor, class by percent of control at 10^-7 M or IC50.
[2] abbreviates: class by percent of control at 10^−7 M or IC50.
[3] abbreviates: class by percent of control at 10^-7 M or IC50.
The mark [4] stands for this setting: MCH receptor activity class 1-3 (percent of control at 10^-7 M or IC50).

Like-named read-outs stand apart in the source and are kept apart here.

Turning to `CN(C)c1nc(N[C@H]2CC[C@@H](NC(=S)Nc3cccc(SC(F)(F)F)c3)CC2)nc2c1CCCC2` [compound 1980], under setting [1], the class is given as 3 (Class 3 The value of percent of control at 10^−7 M was more than 60% or the value of IC50 was more than 200 nM.). Still for that read-out and setting: then `Cc1ccc(C)c(NC(=S)N[C@H]2CC[C@@H](Nc3nc4c(c(N(C)C)n3)CCCC4)CC2)c1` [compound 2059], with 3 (Class 3 The value of percent of control at 10^−7 M was more than 60% or the value of IC50 was more than 200 nM.); and `CN(C)c1nc(N[C@H]2CC[C@@H](NC(=S)Nc3ccc(F)cc3)CC2)nc2c1CCCC2` [compound 1941], with 3 (Class 3 The value of percent of control at 10^−7 M was more than 60% or the value of IC50 was more than 200 nM.); and `CSc1cccc(NC(=S)N[C@H]2CC[C@@H](Nc3nc4c(c(N(C)C)n3)CCCC4)CC2)c1` [compound 2004], with 3 (Class 3 The value of percent of control at 10^−7 M was more than 60% or the value of IC50 was more than 200 nM.). On the same count and under the same terms, with `Cc1ccc(NC(=S)N[C@H]2CC[C@@H](Nc3nc4c(c(N(C)C)n3)CCCC4)CC2)c([N+](=O)[O-])c1` [compound 2020] the figure was 3 (Class 3 The value of percent of control at 10^−7 M was more than 60% or the value of IC50 was more than 200 nM.). On to `Cc1nc(N[C@H]2CC[C@@H](NC(=O)c3ccc(C#N)cc3)CC2)nc(N(C)C)c1C` [compound 2844, 4-cyano-N-(cis-4-{[4-(dimethylamino)-5,6-dimethylpyrimidin-2-yl]amino}cyclohexyl)benzamide], for which, under setting [2], the class is recorded as 1 (Class 1: The value of percent of control at 10^−7 M was less than 40% or the value of IC50 was less than 50 nM.). On the same count and under the same terms, then `Cc1ccc([C@H](C)NC(=O)[C@H]2CC[C@@H](Nc3nc(C)cc(N(C)C)n3)CC2)cc1` [compound 2795], with 1 (Class 1: The value of percent of control at 10^−7 M was less than 40% or the value of IC50 was less than 50 nM.).

Regarding `CN(C)c1cc(N[C@H]2CC[C@@H](CNC(=O)/C=C/c3cccc([N+](=O)[O-])c3)CC2)nc2ccccc12` [compound 797], the class under setting [3] is given as 2 (Class 2: The value of percent of control at 10^−7 M was from 40% to 60% or the value of IC′50 was from 50 nM to 200 nM.).

For `CC(C(=O)N[C@H]1CC[C@@H](Nc2nccc(N(C)C)n2)CC1)c1ccc(N2Cc3ccccc3C2=O)cc1` (relative stereo) [compound 849], under setting [3], the class is recorded as 3 (Class 3 The value of percent of control at 10^−7 M was more than 60% or the value of IC50 was more than 200 nM.).

`CN(C)c1nc(N[C@H]2CC[C@@H](NC(=O)Nc3cc(Cl)cc(Cl)c3)CC2)nc2c1CCCC2` [compound 1794]: the class under setting [3] is given as 3 (Class 3 The value of percent of control at 10^−7 M was more than 60% or the value of IC50 was more than 200 nM.).

As for `COc1ccc(Oc2ncccc2C(=O)N[C@H]2CC[C@@H](Nc3ncc(C)c(N(C)C)n3)CC2)cc1` [compound 2888, N-(cis-4-{[4-(dimethylamino)-5-methylpyrimidin-2-yl]amino}cyclohexyl)-2-(4-methoxyphenoxy)nicotinamide], the class under setting [2] is 1 (Class 1: The value of percent of control at 10^−7 M was less than 40% or the value of IC50 was less than 50 nM.).

With `CN(C)c1ccnc(N[C@H]2CC[C@@H](NC(=O)c3ccccc3C(=O)c3cccc4ccccc34)CC2)n1` [compound 888], under setting [3], the class is 3 (Class 3 The value of percent of control at 10^−7 M was more than 60% or the value of IC50 was more than 200 nM.). On to `Cc1cc(Br)ccc1NC(=S)N[C@H]1CC[C@@H](Nc2nccc(N(C)C)n2)CC1` [compound 2329], for which the class under setting [4] is reported as 3 (Class 3 The value of percent of control at 10^−7 M was more than 60% or the value of IC50 was more than 200 nM.). Turning to `Cc1ccc(-c2ccc(C(=O)N[C@H]3CC[C@@H](Nc4nc5c(c(N(C)C)n4)CCCC5)CC3)o2)c([N+](=O)[O-])c1` [compound 963], under setting [3], the class is reported as 2 (Class 2: The value of percent of control at 10^−7 M was from 40% to 60% or the value of IC′50 was from 50 nM to 200 nM.). With `CN(C)c1nc(N[C@H]2CC[C@@H](NC(=S)NCCCN3CCOCC3)CC2)nc2c1CCCC2` [compound 2078], under setting [1], the class was 3 (Class 3 The value of percent of control at 10^−7 M was more than 60% or the value of IC50 was more than 200 nM.). As for `C[C@H](C(=O)N[C@H]1CC[C@@H](Nc2nccc(N(C)C)n2)CC1)c1cccc(C(=O)c2ccccc2)c1` [compound 878, (2S)-2-(3-benzoylphenyl)-N-(cis-4-{[4-(dimethylamino)pyrimidin-2-yl]amino}cyclohexyl)propanamide], the class under setting [3] is reported as 2 (Class 2: The value of percent of control at 10^−7 M was from 40% to 60% or the value of IC′50 was from 50 nM to 200 nM.). Same read-out and setting: with `CN(C)c1ccnc(N[C@H]2CC[C@@H](NC(=O)c3cccc([N+](=O)[O-])c3)CC2)n1` [compound 262, N-(cis-4-{[4-(dimethylamino)pyrimidin-2-yl]amino}cyclohexyl)-3-nitrobenzamide] the figure was 1 (Class 1: The value of percent of control at 10^−7 M was less than 40% or the value of IC50 was less than 50 nM.); with `CN(C)c1ccnc(N[C@H]2CC[C@@H](NC(=O)C(C)(C)Oc3ccc(Cl)cc3)CC2)n1` [compound 357, 2-(4-chlorophenoxy)-N-(cis-4-{[4-(dimethylamino)pyrimidin-2-yl]amino}cyclohexyl)-2-methylpropanamide], 2 (Class 2: The value of percent of control at 10^−7 M was from 40% to 60% or the value of IC′50 was from 50 nM to 200 nM.); with `C[C@@H](NC(=S)N[C@H]1CC[C@@H](Nc2nc3c(c(N(C)C)n2)CCCC3)CC1)c1ccccc1` [compound 1778], 3 (Class 3 The value of percent of control at 10^−7 M was more than 60% or the value of IC50 was more than 200 nM.). Still for that read-out and setting: then `COc1ccc2ccccc2c1CNC[C@H]1CC[C@@H](Nc2nccc(N(C)C)n2)CC1` [compound 1249], with 1 (Class 1: The value of percent of control at 10^−7 M was less than 40% or the value of IC50 was less than 50 nM.); and `COc1ccc(OC)c(CNC[C@H]2CC[C@@H](Nc3nccc(N(C)C)n3)CC2)c1` [compound 1246], with 3 (Class 3 The value of percent of control at 10^−7 M was more than 60% or the value of IC50 was more than 200 nM.). `COc1ccc(Cl)cc1NC(=S)N[C@H]1CC[C@@H](Nc2nc3c(c(N(C)C)n2)CCCC3)CC1` [compound 2023]: under setting [1], the class was 3 (Class 3 The value of percent of control at 10^−7 M was more than 60% or the value of IC50 was more than 200 nM.). Regarding `COc1cc(COC(=O)NC2CCC(Nc3nc4c(c(N(C)C)n3)CCCC4)CC2)c([N+](=O)[O-])cc1OC` (stereo not shown) [compound 1581, [4-(4-Dimethylamino-5,6,7,8-tetrahydro-quinazolin-2-ylamino)-cyclohexy]-carbamic acid 4,5-dimethoxy-2-nitro-benzyl ester], the class (activity class 1-3: percent of control at 10^-7 M or IC50) is 2 (Class 2: The value of percent of control at 10^−7 M was from 40% to 60% or the value of IC′50 was from 50 nM to 200 nM.).

Regarding `Cc1cc(N(C)C)nc(N[C@H]2CC[C@@H](NC(=O)c3ccc(F)cc3)CC2)n1` [Example 2570, N-(cis-4-{[4-(dimethylamino)-6-methylpyrimidin-2-yl]amino}cyclohexyl)-4-fluorobenzamide], the class was determined as 1.

On to `CSc1ncccc1C(=O)N[C@H]1CC[C@@H](Nc2nc3c(c(N(C)C)n2)CCCC3)CC1` [compound 478], for which the class (class 1-3 by percent of control at 10^-7 M or IC50) is 3 (Class 3 The value of percent of control at 10^−7 M was more than 60% or the value of IC50 was more than 200 nM.).

With `COc1cccc(CNC(=S)N[C@H]2CC[C@@H](Nc3cc(N(C)C)c4ccccc4n3)CC2)c1OC` [compound 2288], under setting [4], the class was 3 (Class 3 The value of percent of control at 10^−7 M was more than 60% or the value of IC50 was more than 200 nM.). Regarding `COc1ccc(CN[C@H]2CC[C@@H](Nc3ncc(C)c(N(C)C)n3)CC2)cc1C` [compound 3003], the class under setting [2] is reported as 3 (Class 3 The value of percent of control at 10^−7 M was more than 60% or the value of IC50 was more than 200 nM.). `CN(C)c1ccnc(N[C@H]2CC[C@@H](CNC(=O)Nc3ccc(F)cc3)CC2)n1` [compound 2410, N-[(cis-4-{[4-(dimethylamino)pyrimidin-2-yl]amino}cyclohexyl)methyl]-N′-(4-fluorophenyl)urea]: under setting [4], the class was 2 (Class 2: The value of percent of control at 10^−7 M was from 40% to 60% or the value of IC′50 was from 50 nM to 200 nM.).

As to `CN(C)c1nc(N[C@H]2CC[C@@H](NC(=O)CCc3ccc(Cl)c(Cl)c3)CC2)nc2c1CCCC2` [compound 974], the class under setting [3] is given as 3 (Class 3 The value of percent of control at 10^−7 M was more than 60% or the value of IC50 was more than 200 nM.). Take `Cc1cc(NC(=O)NC[C@H]2CC[C@@H](Nc3nccc(N(C)C)n3)CC2)c(C(F)(F)F)o1` [compound 2438]: the class under setting [4] is given as 3 (Class 3 The value of percent of control at 10^−7 M was more than 60% or the value of IC50 was more than 200 nM.). Consider `CN(C)c1cc(N[C@H]2CC[C@@H](CNC(=O)c3cccc(C#N)c3)CC2)nc2ccccc12` [compound 156], for which, under setting [1], the class is 3 (Class 3 The value of percent of control at 10^−7 M was more than 60% or the value of IC50 was more than 200 nM.). Consider `Cc1cccc(Oc2ncccc2C(=O)N[C@H]2CC[C@@H](Nc3ncc(C)c(N(C)C)n3)CC2)c1` [compound 2885, N-(cis-4-{[4-(dimethylamino)-5-methylpyrimidin-2-yl]amino}cyclohexyl)-2-(3-methylphenoxy)nicotinamide], for which the class under setting [2] is 1 (Class 1: The value of percent of control at 10^−7 M was less than 40% or the value of IC50 was less than 50 nM.). As to `Cc1cccc(CNC[C@H]2CC[C@@H](Nc3nccc(N(C)C)n3)CC2)c1` [compound 1305], the class under setting [3] is 3 (Class 3 The value of percent of control at 10^−7 M was more than 60% or the value of IC50 was more than 200 nM.). The same measure, in the same setting: then `CN(C)c1nc(N[C@H]2CC[C@@H](NC(=O)Nc3ccccc3Cc3ccccc3)CC2)nc2c1CCCC2` [compound 1851], with 3 (Class 3 The value of percent of control at 10^−7 M was more than 60% or the value of IC50 was more than 200 nM.).

The values above are taken from US20050197350A1, “Novel quinoline, tetrahydroquinazoline, and pyrimidine derivatives and methods of treatment related to the use thereof” (TAISHO PHARMACEUTICAL CO., LTD., priority 2003, published 2005).
